The source of these data is patent US11753397B2, “Cereblon binders for the degradation of ikaros” (C4 Therapeutics, Inc., priority 2018, dated 2023).

Each structure is given as a SMILES string.

In the test the test system is NCIH929.1 cells. The test can be described thus: Cell viability assay (CellTiter-Glo 2.0, ATP quantification). The class given is cell-based. The following applies: NCIH929.1 cell viability, CellTiter-Glo 2.0, 96 hr incubation, top concentration 1 μM. The essentials: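 Read-out is CellTiter-Glo 2.0 luminescence (ATP), after 96 h compound exposure at 37 °C, with a day-0 plate giving the CT0 baseline. Duplicate 10-point half-log titration from 1 μM applied to 750 cells/well in RPMI, 10% FBS, 0.05 mM 2-mercaptoethanol.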
By GI50 is commonly meant the concentration that inhibits growth by half. Compound `O=C1CCC(N2C(=O)c3cccc(NCc4cnn(C5CCN(C(=O)C6CCN(C(=O)C7CCOCC7)CC6)CC5)c4)c3C2=O)C(=O)N1` (stereo not shown) [Compound 109, 2-(2,6-dioxopiperidin-3-yl)-4-(((1-(1-(1-(tetrahydro-2H-pyran-4-carbonyl)piperidine-4-carbonyl)piperidin-4-yl)-1H-pyrazol-4-yl)methyl)amino)isoindoline-1,3-dione] displayed a GI50 of less than 100 nM.
Consider `Cc1ccc(OC(C)(C)C(=O)N2CCC(n3cc(CNc4cccc5c4C(=O)N(C4CCC(=O)NC4=O)C5=O)cn3)CC2)cc1C` (stereo not shown) [Compound 110, 4-(((1-(1-(2-(3,4-dimethylphenoxy)-2-methylpropanoyl)piperidin-4-yl)-1H-pyrazol-4-yl)methyl)amino)-2-(2,6-dioxopiperidin-3-yl)isoindoline-1,3-dione], for which the GI50 is less than 100 nM.
Compound `COCC(=O)N1CCC(C(=O)N2CCC(n3cc(CNc4cccc5c4C(=O)N(C4CCC(=O)NC4=O)C5=O)cn3)CC2)CC1` (stereo not shown) [Compound 111, 2-(2,6-dioxopiperidin-3-yl)-4-(((1-(1-(1-(2-methoxyacetyl)piperidine-4-carbonyl)piperidin-4-yl)-1H-pyrazol-4-yl)methyl)amino)isoindoline-1,3-dione] came in with a GI50 of less than 100 nM.
The figure for `O=C1CCC(N2C(=O)c3cccc(NCc4cnn(C5CCN(C(=O)C6CCN(C(=O)C7CCC7)CC6)CC5)c4)c3C2=O)C(=O)N1` (stereo not shown) [Compound 112, 4-(((1-(1-(1-(cyclobutanecarbonyl)piperidine-4-carbonyl)piperidin-4-yl)-1H-pyrazol-4-yl)methyl)amino)-2-(2,6-dioxopiperidin-3-yl)isoindoline-1,3-dione] is less than 100 nM; for `O=C1CCC(N2C(=O)c3cccc(NCc4cnn(C5CCN(C(=O)C6CCN(C(=O)Cc7ccccc7)CC6)CC5)c4)c3C2=O)C(=O)N1` (stereo not shown) [Compound 113, 2-(2,6-dioxopiperidin-3-yl)-4-(((1-(1-(1-(2-phenylacetyl)piperidine-4-carbonyl)piperidin-4-yl)-1H-pyrazol-4-yl)methyl)amino)isoindoline-1,3-dione] it is less than 100 nM; for `CCc1ccc2c(CC(=O)N3CCC(n4cc(CNc5cccc6c5C(=O)N(C5CCC(=O)NC5=O)C6=O)cn4)CC3)coc2c1` (stereo not shown) [Compound 114, 2-(2,6-dioxoopiperidin-3-yl)-4-(((1-(1-(2-(6-ethylbenzofuran-3-yl)acetyl)piperidin-4-yl)-1H-pyrazol-4-yl)methyl)amino)isoindoline-1,3-dione] it is less than 100 nM.
The figure for `Cc1cccc(-c2nc(CC(=O)N3CCC(n4cc(CNc5cccc6c5C(=O)N(C5CCC(=O)NC5=O)C6=O)cn4)CC3)c(C)o2)c1` (stereo not shown) [Compound 115, 2-(2,6-dioxopiperidin-3-yl)-4-(((1-(1-(2-(5-methyl-2-(m-tolyl)oxazol-4-yl)acetyl)piperidin-4-yl)-1H-pyrazol-4-yl)methyl)amino)isoindoline-1,3-dione] is less than 100 nM; for `O=C1CCC(N2C(=O)c3cccc(NCc4cnn(C5CCN(C(=O)Cc6coc(-c7ccccc7)n6)CC5)c4)c3C2=O)C(=O)N1` (stereo not shown) [Compound 116, 2-(2,6-dioxopiperidin-3-yl)-4-(((1-(1-(2-(2-phenyloxazol-4-yl)acetyl)piperidin-4-yl)-1H-pyrazol-4-yl)methyl)amino)isoindoline-1,3-dione] it is less than 100 nM; for `O=C1CCC(N2C(=O)c3cccc(NCc4cnn(C5CCN(C(=O)CC6CCC(c7ccccc7)CC6)CC5)c4)c3C2=O)C(=O)N1` (stereo not shown) [Compound 117, 2-(2,6-dioxopiperidin-3-yl)-4-(((1-(1-(2-(4-phenylcyclohexyl)acetyl)piperidin-4-yl)-1H-pyrazol-4-yl)methyl)amino)isoindoline-1,3-dione] it is less than 100 nM.
The figure for `Cc1ccc(N2CCC(C(=O)N3CCC(n4cc(CNc5cccc6c5C(=O)N(C5CCC(=O)NC5=O)C6=O)cn4)CC3)CC2)nc1` (stereo not shown) [Compound 118, 2-(2,6-dioxopiperidin-3-yl)-4-(((1-(1-(1-(5-methylpyridin-2-yl)piperidine-4-carbonyl)piperidin-4-yl)-1H-pyrazol-4-yl)methyl)amino)isoindoline-1,3-dione] is less than 1 nM.
The compound `O=C1CCC(N2C(=O)c3cccc(NCc4cnn(C5CCN(C(=O)c6cccc(Cn7cccn7)c6)CC5)c4)c3C2=O)C(=O)N1` (stereo not shown) [Compound 119, 4-(((1-(1-(3-((1H-pyrazol-1-yl)methyl)benzoyl)piperidin-4-yl)-1H-pyrazol-4-yl)methyl)amino)-2-(2,6-dioxopiperidin-3-yl)isoindoline-1,3-dione] yielded a GI50 of less than 100 nM.
Compound `O=C1CCC(N2C(=O)c3cccc(NCc4cnn(C5CCN(C(=O)Cc6cnn(-c7ccccc7)c6)CC5)c4)c3C2=O)C(=O)N1` (stereo not shown) [Compound 120, 2-(2,6-dioxopiperidin-3-yl)-4-(((1-(1-(2-(1-phenyl-1H-pyrazol-4-yl)acetyl)piperidin-4-yl)-1H-pyrazol-4-yl)methyl)amino)isoindoline-1,3-dione] registered a GI50 of less than 100 nM.
`CC(C)(C)OC(=O)N1CCC(C(=O)N2CCC(n3cc(CNc4cccc5c4C(=O)N(C4CCC(=O)NC4=O)C5=O)cn3)CC2)CC1` (stereo not shown) [Compound 121, tert-butyl 4-(4-(4-(((2-(2,6-dioxopiperidin-3-yl)-1,3-dioxoisoindolin-4-yl)amino)methyl)-1H-pyrazol-1-yl)piperidine-1-carbonyl)piperidine-1-carboxylate]: the GI50 was less than 100 nM.
Consider `Cc1cncc(N2CCC(C(=O)N3CCC(n4cc(CNc5cccc6c5C(=O)N(C5CCC(=O)NC5=O)C6=O)cn4)CC3)CC2)n1` (stereo not shown) [Compound 122, 2-(2,6-dioxopiperidin-3-yl)-4-(((1-(1-(1-(6-methylpyrazin-2-yl)piperidine-4-carbonyl)piperidin-4-yl)-1H-pyrazol-4-yl)methyl)amino)isoindoline-1,3-dione], for which the GI50 was less than 1 nM.
`O=C1CCC(N2C(=O)c3cccc(NCc4cnn(C5CCN(C(=O)CC6CCN(C(=O)c7ccccc7)CC6)CC5)c4)c3C2=O)C(=O)N1` (stereo not shown) [Compound 123, 4-(((1-(1-(2-(1-benzoylpiperidin-4-yl)acetyl)piperidin-4-yl)-1H-pyrazol-4-yl)methyl)amino)-2-(2,6-dioxopiperidin-3-yl)isoindoline-1,3-dione] gave a GI50 of less than 100 nM.
The figure for `O=C1CCC(N2C(=O)c3cccc(NCc4cnn(C5CCN(C(=O)Cc6ccc7c(c6Cl)OCCCO7)CC5)c4)c3C2=O)C(=O)N1` (stereo not shown) [Compound 124, 4-(((1-(1-(2-(6-chloro-3,4-dihydro-2H-benzo[b][1,4]dioxepin-7-yl)acetyl)piperidin-4-yl)-1H-pyrazol-4-yl)methyl)amino)-2-(2,6-dioxopiperidin-3-yl)isoindoline-1,3-dione] is less than 100 nM; for `Cn1nc(C2CC2)cc1CC(=O)N1CCC(n2cc(CNc3cccc4c3C(=O)N(C3CCC(=O)NC3=O)C4=O)cn2)CC1` (stereo not shown) [Compound 125, 4-(((1-(1-(2-(3-cyclopropyl-1-methyl-1H-pyrazol-5-yl)acetyl)piperidin-4-yl)-1H-pyrazol-4-yl)methyl)amino)-2-(2,6-dioxopiperidin-3-yl)isoindoline-1,3-dione] it is less than 100 nM.
The compound `O=C1CCC(N2C(=O)c3cccc(NCc4cnn(C5CCN(C(=O)CC6CCN(C(=O)C7CCC7)CC6)CC5)c4)c3C2=O)C(=O)N1` (stereo not shown) [Compound 126, 4-(((1-(1-(2-(1-(cyclobutanecarbonyl)piperidin-4-yl)acetyl)piperidin-4-yl)-1H-pyrazol-4-yl)methyl)amino)-2-(2,6-dioxopiperidin-3-yl)isoindoline-1,3-dione] yielded a GI50 of less than 100 nM.
In turn, `O=C1CCC(N2C(=O)c3cccc(NCc4cnn(C5CCN(CC6CCCCC6)CC5)c4)c3C2=O)C(=O)N1` (stereo not shown) [Compound 127, 4-(((1-(1-(cyclohexylmethyl)piperidin-4-yl)-1H-pyrazol-4-yl)methyl)amino)-2-(2,6-dioxopiperidin-3-yl)isoindoline-1,3-dione] returned a GI50 of less than 100 nM.
`O=C1CCC(N2C(=O)c3cccc(NCc4cnn(C5CCN(CC6CCCC6)CC5)c4)c3C2=O)C(=O)N1` (stereo not shown) [Compound 128, 4-(((1-(1-(cyclopentylmethyl)piperidin-4-yl)-1H-pyrazol-4 yl)methyl)amino)-2-(2,6-dioxopiperidin-3-yl)isoindoline-1,3-dione]: the GI50 is less than 100 nM.
The figure for `O=C1CCC(N2C(=O)c3cccc(NCc4cnn(C5CCN(C6CCC6)CC5)c4)c3C2=O)C(=O)N1` (stereo not shown) [Compound 129, 4-(((1-(1-cyclobutylpiperidin-4-yl)-1H-pyrazol-4-yl)methyl)amino)-2-(2,6-dioxopiperidine-3-yl)isoindoline-1,3-dione] is less than 100 nM.
The compound `O=C1CCC(N2C(=O)c3cccc(NCc4cnn(C5CCN(C6CCCC6)CC5)c4)c3C2=O)C(=O)N1` (stereo not shown) [Compound 130, 4-(((1-(1-cyclopentylpiperidin-4-yl)-1H-pyrazol-4-yl)methyl)amino)-2-(2,6-dioxopiperidin-3-yl)isoindoline-1,3-dione] gave a GI50 of less than 100 nM.
As for `O=C1CCC(N2C(=O)c3cccc(NCc4cnn(C5CCN(CC6CCC6)CC5)c4)c3C2=O)C(=O)N1` (stereo not shown) [Compound 131, 4-(((1-(1-(cyclobutylmethyl)piperidin-4-yl)-1H-pyrazol-4-yl)methyl)amino)-2-(2,6-dioxopiperidin-3-yl)isoindoline-1,3-dione], the GI50 was less than 100 nM.
The figure for `CC1(CN2CCC(n3cc(CNc4cccc5c4C(=O)N(C4CCC(=O)NC4=O)C5=O)cn3)CC2)CCCCC1` (stereo not shown) [Compound 132, 2-(2,6-dioxopiperidin-3-yl)-4-(((1-(1-((1-methylcyclohexyl)methyl)piperidin-4-yl)-1H-pyrazol-4-yl)methyl)amino)isoindoline-1,3-dione] is less than 100 nM.
With `O=C1CCC(N2C(=O)c3cccc(NCc4cnn(C5CCN(C6CCCCC6)CC5)c4)c3C2=O)C(=O)N1` (stereo not shown) [Compound 133, 4-(((1-(1-cyclohexylpiperidin-4-yl)-1H-pyrazol-4-yl)methyl)amino)-2-(2,6-dioxopiperidin-3-yl)isoindoline-1,3-dione], the GI50 was less than 100 nM.
